Measurements published in patent US20260285816A1, “Piperazinyl-Modified Quinazolinyl-Aryl Urea Derivative, And Preparation Method And Use Thereof” (Guangxi Normal University, priority 2025, published 2026).
Structures can show the parent of a compound that is named as a salt. Where two headings read alike, the source gives them in different places. One block for each compound: values may come before it.

How the values were obtained:
[1] = system: 143B cells; experiment: CCK-8 anti-proliferative assay, 143B; assay type: cell-based, human; conditions: Homo sapiens, 143B, co-incubated 48 h, read-out: Anti-proliferative activity (IC50 ± standard deviation) 143B
Method in brief: (§1)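 Absorbance at 450 nm after CCK-8 labelling (1–4 h, varying by cell line) gave inhibition relative to untreated control, from which IC50 values were derived. Compounds were applied at final concentrations of 1 to 30 μM in triplicate wells once cultures reached 70% confluency, with co-incubation for designated durations.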

[2] = system: human osteosarcoma 143B; experiment: 143B tumor-bearing nude mouse model; assay type: in vivo, nude mice; conditions: 40 mg/kg oral gavage, every 2 d, 42 d
Method: Experimental method: bladder cancer J82 cells in logarithmic growth phase were trypsinized, collected, and then centrifuged, and resuspended in serum-free DMEM medium after discarding an original medium. Cell density was adjusted, and 0.2 mL cell suspension was subcutaneously inoculated into 5-week-old BALB/c-nu mice (sex-balanced, 18-20 g) under a laminar flow clean bench. Post-inoculation, bleeding at injection sites was monitored. When tumors reached 50-80 mm^3, nude mice with good tumor growth status were randomized into 5 groups (n=6/group) for intraperitoneal administration. Tumor volume and body weight were recorded on Day 0. […] Dosing occurred every 2 d for 42 d. After administering the drug, mice were monitored for diarrhea, anorexia, lethargy, and allergic reactions (e.g., pruritus). The body weight of nude mice was measured every 2 days, and the long and short diameters of the tumors in nude mice were measured by using a vernier caliper, then the recording was finished.
Construction of the human osteosarcoma 143B tumor-bearing nude mouse model followed similar procedures, with identical dosing frequency but administration route changed to oral gavage. Specifically: When tumors reached 60-90 mm^3, mice were randomized into 4 groups (n=6). […]

[3] = system: MG-63 cells; experiment: CCK-8 anti-proliferative assay, MG-63; assay type: cell-based, human; conditions: Homo sapiens, MG-63, co-incubated 48 h, read-out: Anti-proliferative activity (IC50 ± standard deviation) MG-63
Method in brief: as §1

[4] = system: A549 cells; experiment: CCK-8 anti-proliferative assay, A549; assay type: cell-based, human
Method in brief: (§2)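 Anti-proliferative effect is measured by CCK-8 after compound exposure at nine final concentrations between 1 and 30 μM. Treatment starts once seeded cells (5,000/well) reach 70% confluency at 37° C., 5% CO2.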

[5] = system: Hep G2 cells; experiment: CCK-8 anti-proliferative assay, Hep G2; assay type: cell-based, human; conditions: Homo sapiens, HepG2; Table 12; co-incubated 48 h; read-out: Anti-proliferative activity (IC50 ± standard deviation) Hep G2
Method in brief: as §1

[6] = system: J82 cells; experiment: CCK-8 anti-proliferative assay, J82; assay type: cell-based, human; conditions: Homo sapiens, J82
Method in brief: as §2

[7] = system: embryonic lung fibroblasts (WI-38); experiment: CCK-8 anti-proliferative assay, normal cells WI-38; assay type: cell-based, human; conditions: Homo sapiens, WI-38, Table 13, co-incubated 48 h, read-out: Anti-proliferative activity (IC50 ± standard deviation) WI-38
Method in brief: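 Growth inhibition was measured by CCK-8 in human cells seeded at 5,000 per well and treated at 70% confluency. Compound exposure spanned 1, 2, 4, 6, 8, 12, 16, 24 and 30 μM for designated durations at 37° C. Percent inhibition against vehicle control at OD 450 nm yielded median inhibitory concentrations.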

[8] = system: immortalized ureteral epithelial cells (SV-HUC-1); experiment: CCK-8 anti-proliferative assay, normal cells SV-HUC-1; assay type: cell-based, human; conditions: Homo sapiens, SV-HUC1, normal cells, co-incubated 48 h, read-out: Anti-proliferative activity (IC50 ± standard deviation) SV-HUC-1
Method in brief: as §2

[9] = system: UM-UC-3 cells; experiment: CCK-8 anti-proliferative assay, UM-UC-3; assay type: cell-based, human; conditions: Homo sapiens, UMUC3, co-incubated 48 h, read-out: Anti-proliferative activity (IC50 ± standard deviation) UM-UC-3
Method in brief: as §2

[10] = system: UM-UC-3 cells; experiment: Cell cycle analysis (PI staining, flow cytometry), UM-UC-3; assay type: cell-based, human
Method: Tumor cells (T24, UM-UC-3, 143B, BxPC-3) in logarithmic growth phase were inoculated into 70 mm culture dishes. After 70% confluency was reached, medium was replaced and treated with: compound 8-1j, ferroptosis inducer Erastin, or cell cycle blocker paclitaxel (PTX) for a specified duration. Post-incubation, cells were trypsinized, collected, centrifuged, and washed 2 times with pre-cooled phosphate-buffered saline (PBS). Pre-cooled 75% ethanol was added dropwise during vortexing for fixation at −20° C. overnight. After centrifugation (10 min), supernatant was discarded. Cells were rewashed with PBS and centrifuged. Following kit instructions (Beyotime, C1052, China), 0.5 mL staining buffer, 25 μL PI (propidium iodide) stain (20×), and 10 μL RNase A (50×) were mixed per sample. Cells were resuspended in PI staining solution and incubated at 37° C. in dark for 30 min (gentle shaking every 10 min). Samples were filtered through 200-mesh filters, transferred into a flow tube, and analyzed via BD FACSVerse flow cytometer. All experiments were conducted in 3 repeats. Compounds 8-2h and 8-2j were evaluated identically.

[11] = system: PANC-1 cells; experiment: CCK-8 anti-proliferative assay, PANC-1; assay type: cell-based, human; conditions: for IC50: Homo sapiens, PANC-1, co-incubated 48 h, read-out: Anti-proliferative activity (IC50 ± standard deviation) PANC-1
Method in brief: as §1

[12] = system: SK-OV-3 cells; experiment: CCK-8 anti-proliferative assay, SK-OV-3; assay type: cell-based, human; conditions: Homo sapiens, SK-OV-3, co-incubated 48 h, read-out: Anti-proliferative activity (IC50 ± standard deviation) SK-OV-3
Method in brief: as §2

[13] = system: T24 cells; experiment: CCK-8 anti-proliferative assay, T24; assay type: cell-based, human; conditions: Homo sapiens, T-24; Table 10; co-incubated 48 h; read-out: Anti-proliferative activity (IC50 ± standard deviation) T24
Method in brief: as §1

[14] = system: HeLa cells; experiment: CCK-8 anti-proliferative assay, HeLa; assay type: cell-based, human
Method in brief: as §2

[15] = system: 5637 cells; experiment: CCK-8 anti-proliferative assay, 5637; assay type: cell-based, human; conditions: Homo sapiens
Method in brief: as §2

[16] = system: MCF-7 cells; experiment: CCK-8 anti-proliferative assay, MCF-7; assay type: cell-based, human; conditions: Homo sapiens, MCF7; Table 12; co-incubated 48 h; read-out: Anti-proliferative activity (IC50 ± standard deviation) MCF-7
Method in brief: as §2

[17] = system: BxPC-3 cells; experiment: CCK-8 anti-proliferative assay, BxPC-3; assay type: cell-based, human; conditions: for IC50: Homo sapiens, BXPC-3, co-incubated 48 h, read-out: Anti-proliferative activity (IC50 ± standard deviation) BxPC-3
Method in brief: as §1

[18] = background; cited from earlier work
[19] = background; cited from earlier work; remark: listed apart in the source

SMILES: N#CC1(c2ccc(NC(=O)c3cccnc3NCc3ccncc3)cc2)CCCC1 [Apat, apatinib mesylate, reference compound]
IC50 ([1]; Table 7): 28.4 ± 1.29 µM | Tumor inhibition [2]: weak tumor inhibition activity | IC50 ([3]; Table 7): > 30 µM

IC50 ([4]; Homo sapiens, A549, Table 13, co-incubated 48 h, read-out: Anti-proliferative activity (IC50 ± standard deviation) A549): 3.09 ± 0.24 µM | IC50 ([11]; Table 11): 5.46 ± 0.31 µM | IC50 ([12]; Table 12): 4.61 ± 0.38 µM | IC50 [13]: 3.32 ± 0.15 µM | IC50 ([14]; Homo sapiens, HeLa, Table 12, co-incubated 48 h, read-out: Anti-proliferative activity (IC50 ± standard deviation) HeLa): 3.81 ± 0.25 µM | IC50 [16]: 5.73 ± 0.59 µM | IC50 ([17]; Table 11): 6.15 ± 0.47 µM
SMILES: COc1cc2ncnc(NCc3cccc(NC(=O)Nc4ccc(C(C)(C)C)cc4)c3)c2cc1OCCCCCCN1CCC(CN2CCN(c3ccccn3)CC2)CC1 [Compound 8-2j, N-(3-(((7-methoxy-6-((6-(4-((4-(pyridin-2-yl)piperazin-1-yl)methyl)piperidin-1-yl)hexyl)oxy)quinazolin-4-yl)amino)methyl)phenyl)-N′-(4-tert-butylphenyl)urea]
Activity against A549 versus the 8-1 to 8-23 series, in words [4]: significantly enhanced activity against A549 | IC50 [5]: 3.81 ± 0.24 µM | IC50 ([6]; Table 10, co-incubated 48 h, read-out: Anti-proliferative activity (IC50 ± standard deviation) J82): 3.42 ± 0.25 µM | IC50 ([6]; read-out: IC50 values against J82 cells): 3.42 ± 0.25 µM | IC50 [7]: 8.79 ± 0.42 µM | IC50 ([8]; Table 13): 8.91 ± 0.72 µM | IC50 ([9]; Table 10): 4.66 ± 0.29 µM | Effect of co-administration with PTX on cell cycle ([10]; UM-UC-3, with PTX): Synergistic effects | Cell cycle arrest phase ([10]; UM-UC-3 cells (FIG. 45)): arrest cell cycle at G2/M phase | Sensitivity of PANC-1, in words [11]: heightened sensitivity | IC50 ([1]; Table 11): 5.59 ± 0.49 µM | Sensitivity of HeLa, in words [14]: sensitive | IC50 ([15]; Table 10, co-incubated 48 h, read-out: Anti-proliferative activity (IC50 ± standard deviation) 5637): 2970 ± 230 nM | IC50 ([15]; read-out: IC50 values against 5637 cells): 2970 ± 230 nM | IC50 ([3]; Table 11): 4.64 ± 0.32 µM | Sensitivity of BxPC-3 / anti-proliferative activity against BxPC-3, in words [17]: heightened sensitivity

SMILES: CNC(=O)c1cc(Oc2ccc(NC(=O)Nc3ccc(Cl)c(C(F)(F)F)c3)cc2)ccn1 [Sora, sorafenib, reference compound]
Elimination/metabolism [18]: rapid elimination/metabolism | Oral bioavailability [18]: low oral bioavailability | IC50 ([8]; Table 9): 10.8 ± 0.54 µM | Water solubility [19]: poor aqueous solubility | IC50 ([9]; Table 6): 14.3 ± 1.51 µM | IC50 ([11]; Table 7): 8.13 ± 0.56 µM | IC50 ([12]; Table 9): 13.8 ± 0.78 µM | IC50 ([1]; Table 7): 22.7 ± 1.59 µM | IC50 ([3]; Table 7): 27.2 ± 1.89 µM | Sensitivity of BxPC-3 / anti-proliferative activity against BxPC-3, in words [17]: weak anti-proliferative activity | IC50 ([17]; Table 7): 13.4 ± 1.27 µM
